From patent US20240360091A1, “GLUN2B-SUBUNIT SELECTIVE ANTAGONISTS OF THE N-METHYL-D-ASPARTATE RECEPTORS WITH ENHANCED POTENCY AT ACIDIC PH” (Emory University, priority 2021, published 2024)
Read-outs that look alike come from different tables or passages of the source.

Experiments:
human GluN1/GluN2B = human GluN1/GluN2B (Homo sapiens (Human), UniProt Q05586+Q13224); experiment: Two electrode voltage-clamp recordings from Xenopus laevis oocytes, GluN2B potency and pH dependence; format: cell-based; conditions: for pH Boost: ratio of IC50 at pH 7.6 to IC50 at pH 6.9
Sequence of human GluN1/GluN2B (Q13224 27-1484, other chains not shown): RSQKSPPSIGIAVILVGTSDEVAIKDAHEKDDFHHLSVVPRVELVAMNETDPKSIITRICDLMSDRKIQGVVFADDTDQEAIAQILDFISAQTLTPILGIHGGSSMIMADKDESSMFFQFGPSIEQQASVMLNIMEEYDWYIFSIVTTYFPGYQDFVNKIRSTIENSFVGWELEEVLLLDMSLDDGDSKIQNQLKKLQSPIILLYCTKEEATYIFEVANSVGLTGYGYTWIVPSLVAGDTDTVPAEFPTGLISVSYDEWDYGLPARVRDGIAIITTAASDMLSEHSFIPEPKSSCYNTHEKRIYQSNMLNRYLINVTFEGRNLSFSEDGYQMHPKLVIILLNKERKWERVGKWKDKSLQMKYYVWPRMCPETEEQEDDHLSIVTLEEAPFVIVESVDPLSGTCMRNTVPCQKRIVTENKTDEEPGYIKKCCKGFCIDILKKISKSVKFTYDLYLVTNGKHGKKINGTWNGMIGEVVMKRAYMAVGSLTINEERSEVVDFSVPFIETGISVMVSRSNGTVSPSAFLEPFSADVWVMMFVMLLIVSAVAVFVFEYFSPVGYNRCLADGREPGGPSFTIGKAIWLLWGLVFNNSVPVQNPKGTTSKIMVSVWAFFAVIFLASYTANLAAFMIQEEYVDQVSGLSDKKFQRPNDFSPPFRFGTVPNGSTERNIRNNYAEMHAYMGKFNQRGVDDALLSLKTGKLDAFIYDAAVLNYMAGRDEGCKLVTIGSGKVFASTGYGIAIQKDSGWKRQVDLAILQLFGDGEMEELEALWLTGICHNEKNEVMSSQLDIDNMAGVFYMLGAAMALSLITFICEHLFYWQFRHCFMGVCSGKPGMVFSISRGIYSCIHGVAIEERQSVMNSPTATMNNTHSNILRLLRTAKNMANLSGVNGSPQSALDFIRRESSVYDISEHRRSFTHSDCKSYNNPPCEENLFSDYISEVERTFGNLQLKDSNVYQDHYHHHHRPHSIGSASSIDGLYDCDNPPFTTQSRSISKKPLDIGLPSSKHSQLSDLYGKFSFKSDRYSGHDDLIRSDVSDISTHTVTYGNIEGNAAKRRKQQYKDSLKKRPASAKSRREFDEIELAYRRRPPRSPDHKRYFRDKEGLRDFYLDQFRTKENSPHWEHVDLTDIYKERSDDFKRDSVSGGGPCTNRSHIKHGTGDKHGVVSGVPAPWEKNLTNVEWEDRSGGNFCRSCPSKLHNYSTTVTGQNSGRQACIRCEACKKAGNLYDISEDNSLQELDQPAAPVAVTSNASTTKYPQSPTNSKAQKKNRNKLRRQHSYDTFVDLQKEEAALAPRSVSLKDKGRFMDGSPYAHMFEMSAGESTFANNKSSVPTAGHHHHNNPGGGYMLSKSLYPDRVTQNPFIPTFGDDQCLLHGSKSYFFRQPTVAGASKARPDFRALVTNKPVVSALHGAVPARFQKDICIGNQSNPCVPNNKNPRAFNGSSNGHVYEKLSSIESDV
Experimental: Two Electrode Voltage-Clamp Recordings from Xenopus laevis Oocytes
Stage V-VI Xenopus laevis unfertilized oocytes were purchased from Ecocyte (Austin, Texas) and injected with 5 ng of GluN1 and 10 ng of GluN2B cRNAs. The cDNAs for human GluN1 and GluN2B, encoding NCBI reference sequences NM_007327.3 and NM_000834.3, respectively, were linearized and cRNAs made as previously described (Traynelis et al., J Neurosci, 1998, 18(16):6163-75). After injection, the oocytes were incubated in Barth's culture solution (88 mM NaCl, 1 mM KCl, 2.4 mM NaHCO3, 10 mM HEPES, 0.82 mM MgSO4, 0.33 mM Ca(NO3)2, 0.41 mM CaCl2), 10 U/mL PenStrep, and 0.1 mg/mL gentamycin, pH 7.4) at 18° C. Two electrode voltage-clamp (TEVC) recordings were made at 22-23° C., 2-7 days after the injection, using Warner OC725C amplifiers (VHOLD=−40 mV). Briefly, the oocytes were perfused in a recording solution (90 mM NaCl, 1 mM KCl, 10 mM HEPES, 0.01 mM EDTA, and 0.5 mM BaCl2) adjusted to either pH 7.6 or 6.9 by addition of NaOH or HCl, respectively (pH 6.9 solutions were prepared by addition of HCl to pH 7.6 solutions to maintain an equal concentration of Na^+ ions in both solutions). Concentration-response curves of the compounds were obtained by application of increasing concentrations of each individual compound until steady state conditions were obtained, in the presence of saturating agonist concentrations (i.e., 100 μM glutamate and 30 μM glycine). In general, oocyte recordings were made from 4-10 oocytes per experiment (i.e., oocyte injection cycle) from ≥two experiments. The concentration-response relationship for each oocyte was fit by equation (1),
Percent Response=(100−minimum)/(1+([concentration]/IC50)^nH)+minimum (1)
where minimum is the residual response in saturating concentration of each individual compound (constrained to be ≥0), and IC50 is the concentration of compound that causes half-maximal inhibition, and nH is the Hill slope.

[1] = test system: horizontal locomotor activity of mice; experiment: Locomotor activity; format: in vivo, mouse; conditions: 0.3 mg/kg IP, two hours
Excerpt: (§1) The locomotor and rotarod studies were approved by the Georgia State University IACUC, an AAALAC accredited institution under the supervision of licensed veterinarians. Mice were group housed, provided nestlets and shelters with access to food pellets and water ad libitum under a 12-hour light/dark cycle.
For locomotor activity measurements, mice (C57B16, >90 days old, Jackson Labs) were placed in a closed (with light on) activity monitoring box for one hour to habituate prior to drug testing. After one hour, animals were removed and injected (IP) with drug and then returned to the activity monitoring box and total locomotor activity was monitored for two hours. The total number of light beam breaks in the cage (horizontal) was determined by a computer and results averaged for each drug. Results were analyzed by ANOVA and Dunnett's post hoc test to compare horizontal activity of drug-treated groups to vehicle controls. Male animals were used for these behavioral tests given only male mice were used in the MCAO transient ischemia studies.

[2] = test system: motor coordination of mice on rotarod; experiment: Rotarod performance; format: in vivo, mouse; conditions: 30 mg/kg IP, all four trials
Experimental: as §1
For rotarod experiments, male C57BL/6 mice (>90 days old) were tested using a Rotamax 4/8 rotarod (Columbus Instruments, Columbus, Ohio). Prior to training and testing, the mice were brought to the testing room and allowed to acclimate for two hours prior to any further handling. Mice were placed on a rotating rod (5 rpm), 3.8 cm in diameter and 8 cm wide, elevated 30 cm from the floor of a chamber. After 10 sec of rotation at a fixed velocity, the rotation was slowly accelerated from 5 to 35 rpm over a 5 min period. The duration of time that the mouse could stay on the rotarod, without hanging on for a full rotation or without falling, was recorded. Mice were trained 4 times at 25 min inter-trial intervals on each day for two days. On day three, mice were randomly assigned to treatment groups and administered test drug or vehicle (via IP administration) 25 min prior to testing (4 trials with inter-trial interval of 25 min). Individuals performing the experiment were blinded to the identity of each treatment group. Results were analyzed by ANOVA and Dunnett's post hoc test to compare duration of time on the rotating rod of drug-treated groups to the vehicle controls.

[3] = pH 6.9, read-out: IC50 (μM) pH 6.9
[4] = pH 7.6, read-out: IC50 (μM) pH 7.6

Structure (SMILES)	IC50 (human GluN1/GluN2B; [3]) [µM]	IC50 (human GluN1/GluN2B; [4]) [µM]	pH Boost (human GluN1/GluN2B)	potency against GluN2B compared to corresponding S enantiomer (human GluN1/GluN2B)	horizontal activity compared to the vehicle control [1]	IC50 (human GluN1/GluN2B; pH 6.9, read-out: IC50 value at pH 6.9) [µM]	IC50 (human GluN1/GluN2B; pH 7.6, read-out: IC50 value at pH 7.6) [µM]	latency-to-fall score [2]
CS(=O)(=O)Nc1ccc(OC[C@@H](O)CN2CCN(c3ccc(F)c(F)c3)CC2)cc1 [Compound 93-108]	0.031	0.558	18.0					
Oc1ccc(OC[C@@H](O)CN2CCN(c3ccc(F)c(F)c3)CC2)cc1 [Compound 10030]	0.087	0.978	11.2					
Oc1ccc(OC[C@@H](O)CN2CCN(c3ccccc3)CC2)cc1 [Compound 10039]	0.217	0.476	2.2					
Cc1ccc(N2CCN(C[C@H](O)COc3ccc(O)cc3)CC2)cc1 [Compound 10040]	0.074	0.26	3.5					
Oc1ccc(OC[C@H](O)CN2CCN(c3ccc(F)c(F)c3)CC2)cc1 [Compound 10052]	0.05	0.272	5.4					
NC(=O)Nc1ccc(OC[C@@H](O)CN2CCN(c3ccc(Cl)cc3)CC2)cc1 [Compound 10075]	0.046	0.452	9.8					
CC(C)c1ccc(N2CCN(C[C@H](O)COc3ccc(O)cc3)CC2)cc1 [Compound 10082]	0.356	1.37	3.8					
NC(=O)Nc1ccc(OC[C@@H](O)CN2CCN(c3ccc(Cl)c(Cl)c3)CC2)cc1 [Compound 10131]	0.103	0.947	9.2					
O=C1Cc2cc(OC[C@@H](O)CN3CCN(c4ccc(Cl)cc4)CC3)ccc2N1 [Compound 10146]	0.029	0.37	12.8					
NC(=O)Nc1ccc(OC[C@H](O)CN2CCN(c3ccc(Cl)cc3)CC2)cc1 [Compound 10165]	0.019	0.06	3.2					
NC(=O)Nc1ccc(OC[C@H](O)CN2CCN(c3ccc(Cl)c(Cl)c3)CC2)cc1 [Compound 10166]	0.03	0.132	4.4					
CCc1ccc(N2CCN(C[C@H](O)COc3ccc(O)cc3)CC2)cc1 [Compound 10171]	0.046	0.316	6.9					
CCc1ccc(N2CCN(C[C@H](O)COc3ccc(NC(N)=O)cc3)CC2)cc1 [Compound 10189]	0.094	1	10.6					
NC(=O)Nc1ccc(OC[C@@H](O)CN2CCN(c3ccc(F)cc3)CC2)cc1 [Compound 10214]	0.221	2.18	9.9					
CCCc1ccc(N2CCN(C[C@H](O)COc3ccc(NC(N)=O)cc3)CC2)cc1 [Compound 10215]	0.13	1.3	10.0					
CCc1ccc(N2CCN(C[C@@H](O)COc3ccc(NC(N)=O)cc3)CC2)cc1 [Compound 10222]	0.052	0.183	3.5					

Structure (SMILES)	IC50 (human GluN1/GluN2B; [3]) [µM]	IC50 (human GluN1/GluN2B; [4]) [µM]	pH Boost (human GluN1/GluN2B)	potency against GluN2B compared to corresponding S enantiomer (human GluN1/GluN2B)	horizontal activity compared to the vehicle control [1]	IC50 (human GluN1/GluN2B; pH 6.9, read-out: IC50 value at pH 6.9) [µM]	IC50 (human GluN1/GluN2B; pH 7.6, read-out: IC50 value at pH 7.6) [µM]	latency-to-fall score [2]
CCCc1ccc(N2CCN(C[C@@H](O)COc3ccc(NC(N)=O)cc3)CC2)cc1 [Compound 10224]	0.034	0.171	5.0					
NC(=O)Nc1ccc(OC[C@H](O)CN2CCN(c3ccc(F)cc3)CC2)cc1 [Compound 10225]	0.097	0.527	5.4					
O=C1Cc2cc(OC[C@H](O)CN3CCN(c4ccc(Cl)cc4)CC3)ccc2N1 [Compound 10228]	0.121	0.592	4.9	lower potency				
CS(=O)(=O)Nc1ccc(OC[C@H](O)CN2CCN(c3ccc(F)c(F)c3)CC2)cc1 [Compound 10233]	0.047	0.294	6.3	lower potency				
CCCCc1ccc(N2CCN(C[C@H](O)COc3ccc(O)cc3)CC2)cc1 [Compound 10235]	0.398	4.38	11.0					
Oc1ccc(OC[C@H](O)CN2CCN(c3ccccc3)CC2)cc1 [Compound 10243]	0.071	0.574	8.1					
Cc1ccc(N2CCN(C[C@@H](O)COc3ccc(O)cc3)CC2)cc1 [Compound 10244]	0.047	0.305	6.5					
CCc1ccc(N2CCN(C[C@@H](O)COc3ccc(O)cc3)CC2)cc1 [Compound 10245]	0.025	0.385	15.4					
CC(C)c1ccc(N2CCN(C[C@@H](O)COc3ccc(O)cc3)CC2)cc1 [Compound 10247]	0.144	0.675	4.7					
CCCCc1ccc(N2CCN(C[C@@H](O)COc3ccc(O)cc3)CC2)cc1 [Compound 10249]	0.549	3.42	6.2	lower potency				
NC(=O)Nc1ccc(OC[C@H](O)CN2CCN(c3ccc(C(F)(F)F)cc3)CC2)cc1 [Compound 10272]	0.022	0.128	5.8					
NC(=O)Nc1ccc(OC[C@@H](O)CN2CCN(c3ccc(C(F)(F)F)cc3)CC2)cc1 [Compound 10294]	0.03	0.209	7.0					
C[C@]12N[C@H](Cc3ccccc31)c1ccccc12 [MK-801]					significant increase			
O=C1CCc2cc(OC[C@@H](O)CN3CCN(c4ccc(C(F)(F)F)cc4)CC3)ccc2N1 [NP10309]	0.111	0.717	6.5			0.111	0.717	
CC(C(O)c1ccc(O)cc1)N1CCC(Cc2ccccc2)CC1 (stereo not shown) [ifenprodil, reference compound]								significant reduction
